PMC13192270, “RhlR quorum-sensing receptor ligand sensitivity regulates the differential expression of phenazine genes in Pseudomonas aeruginosa” (Journal of Bacteriology, 2026)
Numbering of substitutions follows the chain as printed.

Legend:
Experiment in all cases: E. coli prhlA-luxCDABE luciferase reporter assay
Assay type in all cases: cell-based, Escherichia coli
RhlR (T58F) = target: T1, RhlR (T58F) (Pseudomonas aeruginosa, UniProt P54292, T58F)
T1 construct: expressed in transfected cells; host or cells: E. coli carrying pBAD-A-rhlR mutant, pCS26-prhlA-luxCDABE and pACYC-pqsE or empty pACYC
T1 sequence (P54292 1-241 T58F): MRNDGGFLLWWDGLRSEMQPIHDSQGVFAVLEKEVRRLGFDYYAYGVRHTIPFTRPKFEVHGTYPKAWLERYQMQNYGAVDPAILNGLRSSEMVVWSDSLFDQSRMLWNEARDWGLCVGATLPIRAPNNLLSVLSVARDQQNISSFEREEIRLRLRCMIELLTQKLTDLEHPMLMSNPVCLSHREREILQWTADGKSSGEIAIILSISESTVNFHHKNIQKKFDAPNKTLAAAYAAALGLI
Description: (§1) Previous analysis of the RhlR LBP focused on highly conserved residues that were known from other AHL-binding proteins to be important contacts for AHL molecules, particularly the lactone head group. We performed conservation analyses on 300 LuxR-type receptors to determine variable and moderately conserved residues in the LBP (Fig. 1B) and, in conjunction with our previously determined experimental structure of WT RhlR bound to the synthetic agonist mBTL, used for docking C4- and C6HSL. Based on our docking simulations, C4- and C6HSL occupy a similar position in the LBP as mBTL, a highly efficacious activator of RhlR (Fig. 1C; Fig. S1). We targeted residues A44, G46, T58, L69, Y72, D81, I84, W96, and W108 (Fig. 1B and C). These residues were selected because of their proximity to the acyl tail of C4HSL, as well as the differences in conservation that are observed at these sites. We used an E. coli luciferase reporter assay to monitor ligand-dependent activation of WT RhlR and RhlR variants. WT RhlR and RhlR variants were expressed under the control of an arabinose-inducible promoter (Fig. S2). Transcription was monitored by light production via the expression of the luxCDABE operon controlled by the RhlR-dependent promoter of rhlA. Binding of RhlR to the rhlA promoter is highly dependent on the C4HSL-RhlR interaction, based on ChIP-seq analyses performed in P. aeruginosa as well as previously published E. coli reporter systems ([34], [39]). After expressing WT RhlR and RhlR variants in the E. coli reporter system, we performed dose response assays using C4HSL to calculate the concentration of C4HSL required to activate the reporter system to 50% maximum levels (EC50 value; Table 1). As expected, transcription activation by WT RhlR increased with increased C4HSL levels, with an EC50 value of ~2 µM. We observed a range of responses. Figure 1C depicts the targeted residues, which are colored based on the effect of amino acid substitution.
(§2) RhlR requires the accessory-binding protein, PqsE, for maximal activity. To determine if PqsE expression altered the activation of RhlR variants, we assessed AHL-dependent RhlR activation of the prhlA-luxCDABE reporter in the presence of a third plasmid that constitutively expresses PqsE in E. coli. […] RhlR variants that were still active but with increased EC50 values for C4HSL could have their activity enhanced by PqsE. […] Thus, alterations to the LBP can diminish the additive effect of PqsE-dependent transcription, indicating a potential role of allosteric conformational changes dependent on ligand occupancy. […] RhlR variants at residues I84 and W108 could not be activated by C4HSL, and thus, light levels remained low at all concentrations that were tested. Unlike the aforementioned variants, RhlR I84M/W and RhlR W108F/Y were activated by the expression of PqsE (Fig. S4).
(§3) All E. coli strains in this study were grown overnight with shaking in 5 mL Luria-Bertani (LB) media supplemented with 100 µg/mL ampicillin, 50 µg/mL kanamycin, and 15 µg/mL tetracycline at 37°C overnight. Overnight cultures were diluted 1:100 into fresh media, grown at 37°C with shaking for 2 h until reaching OD600 = 0.4. Cultures were induced with a final concentration of 0.1% arabinose, and 198 μL of the induced culture was mixed with 2 μL of C4HSL dilutions in a clear-bottom, black-opaque 96-well plate (Corning) and grown at 37°C with shaking for 4 h. The C4HSL dilution series was performed 1:1 in dimethyl sulfoxide (DMSO) with a top final concentration of 10 μM. Luminescence and optical density were recorded using a Glomax (Promega) plate reader.

RhlR (T58I) = target: T2, RhlR (T58I) (Pseudomonas aeruginosa, UniProt P54292, T58I)
T2 construct: expressed in transfected cells; host or cells: E. coli carrying pBAD-A-rhlR mutant, pCS26-prhlA-luxCDABE and pACYC-pqsE or empty pACYC
T2 sequence (P54292 1-241 T58I): T1 sequence (P54292 1-241 T58F) with F58I
Description: as §1, §2, §3

RhlR (T58L) = target: T3, RhlR (T58L) (Pseudomonas aeruginosa, UniProt P54292, T58L)
T3 construct: expressed in transfected cells; host or cells: E. coli carrying pBAD-A-rhlR mutant, pCS26-prhlA-luxCDABE and pACYC-pqsE or empty pACYC
T3 sequence (P54292 1-241 T58L): T1 sequence (P54292 1-241 T58F) with F58L
Description: as §1, §2, §3

CCCC(=O)N[C@H]1CCOC1=O [C4HSL, N-butyryl-L-homoserine lactone] showed an EC50 (RhlR (T58F); Vector (no pqsE)) of 3210 nM, an EC50 (RhlR (T58F); pqsE co-expressed) of 198 nM and an EC50 (RhlR (T58I); Vector (no pqsE)) of 1820 nM. For the same compound, the EC50 (RhlR (T58I); pqsE co-expressed) was 120 nM, the EC50 (RhlR (T58L); Vector (no pqsE)) was 854 nM and the EC50 (RhlR (T58L); pqsE co-expressed) was 99 nM.
